The source made the active and inactive calls. The rule behind the calls is not given here.
Legend:
[1] = biological target: LYPLA1; test: LYPLA1 and LYPLA2 inhibitor potency, dose response, biochemical, gel-based ABPP (AID 493110); details: competitive probe labeling
[2] = biological target: LYPLA2; test: as above; details: competitive probe labeling

| Structure (SMILES) | IC50 [1] | IC50 [2] |
| --- | --- | --- |
| O=C(N1CCOCC1)n1nnc2ccccc21 | 795 nM | inactive |
| CC(C)(O)c1cnn(C(=O)N2CCC(C(C)(C)C)CC2)n1 | 44 nM | 97 nM |
| CC(C)(C)C1CCN(C(=O)n2ncc(C3(O)CCCCC3)n2)CC1 | 35 nM | 57 nM |
| CCC1CCCCN1C(=O)n1ncc(C(O)(c2ccccc2)c2ccccc2)n1 (stereo not given) | > 10000 nM (inactive) | > 10000 nM (inactive) |
| CC(C)(C)C1CCN(C(=O)n2ncc(C(O)(c3ccccc3)c3ccccc3)n2)CC1 | 17 nM | 30 nM |
